Test results: PMC10886690, “Synthesis, Characterization, Antioxidant, and Anticancer Activity against Colon Cancer Cells of Some Cinnamaldehyde-Based Chalcone Derivatives” (Biomolecules, 2024)
Entries after “also recorded” stand apart in the source; their conditions may differ. Where two headings read alike, the source gives them in different places.

Experiments:
wi38 cells = assay: MTT test on healthy WI38 cells; assay type: cell-based, human; conditions: 50 to 1000 µM, 24 h
Protocol: (§1) The American Type Culture Collection (ATCC) provided WI-38 (ATCC CCL-75), a cell line from the healthy human embryonic lung, and Caco-2 (ATCC HTB-37), a cell line from colon cancer. These cells were developed in DMEM medium that was supplemented with antibiotics and fetal bovine serum in a 5% CO2 humidified incubator at 37 °C.
The effects of the investigated compounds on the survival of healthy cells, WI38, have been evaluated and compared to 5-Fluorouracil (5-FU, the standard reference drug) utilizing the MTT test at concentrations ranging from 50 to 1000 µM to further determine whether the substances were secure for usage on living tissues. Three distinct evaluations of each value were carried out to calculate the final findings.

BCL-2 = assay: qRT-PCR of BCL-2 mRNA in Caco-2 cells; assay type: cell-based, human; conditions: Caco-2, IC50 concentration
Source text: (§2) The relative amounts of messenger RNA (mRNA) for apoptosis-related genes (BCL-2, Caspase-3, and BAX) have been monitored in order to look into potential processes relating to the effect of the tested 3e compound on apoptosis inside the treated Caco-2 cancer cells. In a nutshell, Thermo Fisher Scientific’s RNA purification kit (Waltham, MA, USA) (catalog #K0731) was used to isolate total RNA from both control- and Caco-2-treated cells, as per the manufacturer’s instructions. The ratio of A260/A280 was then quantified using a spectrophotometer to figure out the amounts of extracted RNA in each sample. Then, following the manufacturer’s instructions, first-strand cDNA was produced from the collected RNA samples using a kit made by Thermo Fisher Scientific called RevertAid (catalog #K1621). Real-time PCR amplification was performed on an Applied Biosystems StepOnePlusTM instrument using the Thermo Fisher Scientific Maxima SYBR Green qPCR kit (catalog #K0221) and gene-specific primers (Invitrogen, Waltham, MA, USA), as detailed in Table 3. Then, the relative quantification (RQ) of the utilized genes was calculated using a comparative threshold cycle approach, compared against their varied expression in the untreated samples, and normalized to B-actin as a housekeeping gene. […]

Caco-2 cells [1] = assay: Annexin V/PI flow cytometry apoptosis assay; assay type: cell-based, human; conditions: Caco-2, IC50 dose, 24 h
Protocol: The annexin V/PI assay focuses on the translocation of phosphatidylserine (PS) from the inner plasma membrane toward the cell surface within apoptotic cells. Accordingly, the Annexin V-FITC detection kit I (BD Biosciences) was implemented to figure out the numbers of apoptotic and necrotic cells in both the compound 3e-treated and untreated Caco-2 cells for 24 h.. In brief, Caco-2 cells were collected, expanded in 6-well culture dishes with 1 × 10^6 cells per well, and then allowed to incubate for an overnight period to promote cell adhesion and proliferation. After only 24 h in the presence of the 3e compound, the cells were trypsinized, centrifuged, rinsed with PBS, and then mixed with a solution containing Annexin V binding buffer (1×) before being exposed to the Annexin V-FITC and propidium iodide stains. At last, a flow cytometer (BD FACSCalibur™, Biosciences, San Jose, CA, USA) was implemented to find the amount of early as well as late apoptotic cells, and the outcomes were presented graphically.

Caco-2 cells [2] = assay: Comet assay (DNA fragmentation); assay type: cell-based, human
Source text: The production of genotoxicity in Caco-2 cells treated with compound 3e was investigated using a comet test. Caco-2 cells were pretreated with a caspase-3 inhibitor (Z-DEVD-FMK) to ascertain whether or not caspase-3 activity contributed to the DNA damage induced by compound 3e. Using the comet test, in order to assess the influence of compound 3e upon DNA damage, Caco-2 cells were subjected to either compound 3e separately (IC50 concentration) or compound 3e (IC50 concentration) following prior treatment with Z-DEVD-FMK ([…]) for 1 h. Broken strands of broken DNA will detach from intact strands of cellular DNA during fragmentation, producing a structure similar to a comet tail visible under a fluorescence microscope (Carl Zeiss, Axiostar Plus 1169–149, Jena, Germany). For each slide, 100 photos of comets of varying shapes were captured using a computerized image analysis system. Afterwards, the photos were analyzed using the TriTek Comet ScoreTM program (TriTek Corp., Sumerduck, VA, USA) to gather information about the comet’s properties. The tail DNA and tail moment, two often-utilized markers, were built to be used in discovering the data. The Olive tail moment (OTM), which is also called a tail moment parameter, is generally accepted as the gold standard for evaluating DNA damage. Its value, which was calculated using Equation (3), is proportional to the tail’s DNA mobility and DNA abundance. OTM = quantity of tail moment × quantity of tail DNA divided by 100(3)

BAX = assay: qRT-PCR of BAX mRNA in Caco-2 cells; assay type: cell-based, human; conditions: Caco-2, IC50 concentration
Source text: as §2

Caco-2 cells [3] = assay: MTT cytotoxicity against Caco-2 cells; assay type: cell-based, human; conditions: 24 h incubation, mean ± SD of three analyses, read-out: IC50 Conc. against Caco-2 cells
Protocol: as §1
The toxicity of the tested compounds (3a–3k) toward Caco-2 cancer cells was examined and compared to 5-Fluorouracil (5-FU, the standard reference drug) utilizing MTT assay, as previously explained. In brief, 1 × 10^5 Caco-2 cells/mL were distributed into each well of a 96-well plate and kept overnight at 37 °C in their growth mixture. The cells were then subjected to the various doses of the studied compounds (50–1000 µM). Following that, the cells were exposed to MTT solution, which induced formazan formation from the MTT, a byproduct of the metabolism of MTT that is proportionate to the quantity of intact cells. To further dissolve the formazan crystal, dimethyl sulfoxide was applied to the cells. Caco-2 survival was obtained through measuring the value of the optical density at 570 nm implementing a microplate reader (Bio-Rad, Hercules, CA, USA), and the effect of the substances on cell proliferation was expressed using the aforementioned formula (2):Cell viability % = (Abs. of tested sample − Abs. of blank)/(Abs. of control − Abs. of blank) × 100(2)
The half-suppression (IC50) dose of the test drugs over a 24 h incubation period was identified through examination of the concentration–response curve. Each value was evaluated three times, and the average of the three ratings was employed to obtain the results.

Caspase-3 = assay: qRT-PCR of Caspase-3 mRNA in Caco-2 cells; assay type: cell-based, human; conditions: Caco-2, IC50 concentration
Source text: as §2

[4] = Caco-2, IC50 concentration after pretreatment with Caspase-3 inhibitor Z-DEVD-FMK for 1 h
[5] = Caco-2, compound alone at IC50 concentration, without Caspase-3 inhibitor

O=C(/C=C/C=C/c1ccccc1)c1ccc[nH]1 [3e, (2E,4E)-5-phenyl-1-(1H-pyrrol-2-yl)penta-2,4-dien-1-one]
effect on wi38 normal cell viability (wi38 cells): higher % of wi38 cell viability; also recorded: no detrimental effects
BCL-2 mRNA expression level versus untreated cells (BCL-2): substantial reduction
percentage of apoptotic cells (early and late) versus untreated (Caco-2 cells [1]): much greater percentage of apoptotic cells
% DNA in Tail (Caco-2 cells [2]; [4]): 4.55± 1.73
Olive Tail Moment (OTM) (Caco-2 cells [2]; [4]): 0.69± 0.16
Tail Moment (Caco-2 cells [2]; [4]): 0.44± 0.08
% DNA in Tail (Caco-2 cells [2]; [5]): 8.18 ± 0.56
Olive Tail Moment (OTM) (Caco-2 cells [2]; [5]): 1.92 ± 0.04
Tail Moment (Caco-2 cells [2]; [5]): 1.19 ± 0.03
BAX mRNA expression level versus untreated cells (BAX): increased considerably
IC50 (Caco-2 cells [3]): 32.2 ± 3.92 µM
IC50 (Caco-2 cells [3]; Homo sapiens, Caco-2, 24 h): 32.1 ± 3.92 µM
Caspase-3 mRNA expression level versus untreated cells (Caspase-3): increased considerably
melting point: 170 °C
